Experimental data: PubChem BioAssay AID2060612 (Molecular Pharmacology Branch, DTP, NCI, 2025)

System: 565232-114-T-J1-PDC complex spheroid viability
Assay: Anticancer human tumor 565232-114-T-J1-PDC patient-derived bladder carcinoma cell line growth inhibition [CLK]
Details: for IC50: curve of first compound; for viability, T/C: stronger effect = lower value; active = viability on the fitted dose curve at most 10% of control; inactive = the rest
Description: A high-throughput screen of multi-cell type tumor spheroids was designed to identify active combinations of […] and targeted small molecules. Complex spheroids include a stromal component modeled by human endothelial cells (HUVEC) and fibroblasts modeled by human mesenchymal stem cells (MSCs). The concentration ranges selected for each drug and investigational agent were based upon clinically achievable concentrations if the clinical Cmax of the agent was known.
Compounds. The drugs and investigational agents: cirtuvivint (SM08502; NSC835563), CC-671 (NSC850746), vemurafenib (NSC761431), tapotoclax (NSC804041), sotorasib (NSC818433), adagrasib (NSC831453), MRTX-1133 (NSC836407), BAY2416964 (NSC825713), copanlisib (NSC816437), inavolisib (NSC800729), abemaciclib (NSC768073), osimertinib (NSC779217), entinostat (NSC756642), eltanexor (KPT-8602, NSC794443), venetoclax (NSC766270), ceralasertib (NSC777638), bortezomib (NSC756655), olaparib (NSC753686), talazoparib (NSC767125), alisertib (NSC759677), peposertib (NSC802822), gemcitabine (NSC613327), 5-fluorouracil (NSC19893), SN-38 (NSC673596), oxaliplatin (NSC266046), paclitaxel (NSC125973), and doxorubicin (NSC123127), were obtained from the National Cancer Institute (NCI) Developmental Therapeutics Program Chemical Repository. The FDA-approved anticancer drug set is available from the Developmental Therapeutics Program at https://dtp.cancer.gov/organization/dscb/obtaining/available plates.htm. […] The stock solutions were prepared in dimethyl sulfoxide (DMSO, Sigma-Aldrich, St. Louis, MO, cat. D2650), except for the platinum complexes which were prepared in saline (Quality Biological, Gaithersburg, MD, cat. 114-055-101), at 800-fold the tested concentration and stored at -70 degrees C prior to their use. All drugs and investigational agents were tested over a range starting from a high concentration at or near the clinical Cmax and decreasing in half-log increments. If the clinical Cmax for an agent had not been determined, the highest concentration tested was 10 microM.
Cell Culture. All cells were maintained in an incubator at 37 degrees C and 5% CO2 with 95% humidity. The PDC lines were cultured according to standard operating procedures established by the NCI PDMR. Briefly, all PDCs were thawed and cultured in Matrigel-coated flasks prepared with a working solution of 1X Ham's F-12 nutrient mix, without supplementation (Invitrogen, Waltham, MA, cat. 11765054), 100 U/mL penicillin-streptomycin (Invitrogen, cat. 15140122), and 2.5% Matrigel (Corning Inc., Corning, NY, cat. 354248) for the first three passages. The 947758-054-R-J2-PDC line was cultured in 6B/Colon 1A media, which includes advanced DMEM/F-12 (Thermo Fisher Scientific, cat. 12634028), 10 mM HEPES (Thermo Fisher Scientific, cat. 15630080), 1X GlutaMAX supplement (Thermo Fisher Scientific, cat. 35050061), 0.1 mg/mL primocin (InvivoGen, cat. ant-pm-2), 10% defined fetal bovine serum, heat inactivated (HyClone Laboratories Inc., cat. SH30070.03HI), 1.25 mM N-Acetyl-L-cysteine (Sigma-Aldrich, cat. A9165), 10 mM nicotinamide (Sigma-Aldrich, cat. N0636), 1X B-27 supplement (Thermo Fisher Scientific, cat. 17504044), 1X N-2 supplement (Thermo Fisher Scientific, cat. 17502048), and 10 microM Y-27632 dihydrochloride (Tocris Bioscience, cat. 1254). The 876862-298-R-J1-PDC was cultured in 6E media, which includes all 6B/Colon 1A media components plus 50% L-WRN conditioned media (ATCC, cat. CRL-3276), 50 ng/mL recombinant human EGF recombinant protein (hEGF; Thermo Fisher Scientific, cat. PHG0311), 10 ng/mL recombinant human fibroblast growth factor 10 (hGFG-10; PeproTech, cat. 100-26), 1 ng/mL recombinant human fibroblast growth factor 2 (hFGF-2; PeproTech, cat. 100-18B), and 1 µM prostaglandin E2 (PGE2; Tocris, cat. 2296). The 227483-062-R1-J1-PDC line was cultured in Panc media, containing all 6E components except hFGF-2, with the addition of 500 nM SB-431542 (Selleckchem, cat. S1067) and 10 nM gastrin (Tocris, cat. 3006). […]
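Also: spheroids exposed to compounds for 7 days before readout.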
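For viability, T/C in this document: 100% = DMSO vehicle wells with luminescence normalized to vehicle control.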

CCc1c2c(nc3ccc(O)cc13)-c1cc3c(c(=O)n1C2)COC(=O)[C@]3(O)CC + CN1CCN(c2cc(C(=O)Nc3cc4cc(-c5cnn(C)c5)ccc4cn3)ccn2)CC1
13.9 nM: IC50 (second compound 0.1 µM)
inactive: viability, T/C (second compound 0.0316 µM, first compound 0.00316 µM) 96.6% | viability, T/C (second compound 0.0316 µM, first compound 0.01 µM) 61.8% | viability, T/C (second compound 0.0316 µM, first compound 0.0316 µM) 54.6% | viability, T/C (second compound 0.0316 µM, first compound 0.1 µM) 38.5% | viability, T/C (second compound 0.0316 µM, first compound 0.316 µM) 16.3% | viability, T/C (second compound 0.1 µM, first compound 0.00316 µM) 113% | viability, T/C (second compound 0.1 µM, first compound 0.01 µM) 48.3% | viability, T/C (second compound 0.1 µM, first compound 0.0316 µM) 39.1% | viability, T/C (second compound 0.1 µM, first compound 0.1 µM) 21.1% | viability, T/C (second compound 0.1 µM, first compound 0.316 µM) 7.93% | viability, T/C (second compound 0.316 µM, first compound 0.00316 µM) 18.2% | viability, T/C (second compound 0.316 µM, first compound 0.01 µM) 17.8% | viability, T/C (second compound 0.316 µM, first compound 0.0316 µM) 13.5%
active: viability, T/C (second compound 0.0316 µM, first compound 1 µM) 5.15% | viability, T/C (second compound 0.1 µM, first compound 1 µM) 3.53% | viability, T/C (second compound 0.316 µM, first compound 0.1 µM) 5.02% | viability, T/C (second compound 0.316 µM, first compound 0.316 µM) 1.56% | viability, T/C (second compound 0.316 µM, first compound 1 µM) 2.33% | viability, T/C (second compound 1 µM, first compound 0.00316 µM) 0.86% | viability, T/C (second compound 1 µM, first compound 0.01 µM) 0.17% | viability, T/C (second compound 1 µM, first compound 0.0316 µM) 1.6% | viability, T/C (second compound 1 µM, first compound 0.1 µM) 0.24% | viability, T/C (second compound 1 µM, first compound 0.316 µM) 0.5% | viability, T/C (second compound 1 µM, first compound 1 µM) 1.14% | viability, T/C (second compound 3.16 µM, first compound 0.00316 µM) 0.22% | viability, T/C (second compound 3.16 µM, first compound 0.01 µM) 1% | viability, T/C (second compound 3.16 µM, first compound 0.0316 µM) 0.2% | viability, T/C (second compound 3.16 µM, first compound 0.1 µM) 0.12% | viability, T/C (second compound 3.16 µM, first compound 0.316 µM) 1.33% | viability, T/C (second compound 3.16 µM, first compound 1 µM) 2.74% | viability, T/C (second compound 10 µM, first compound 0.00316 µM) 0.22% | viability, T/C (second compound 10 µM, first compound 0.01 µM) 1.67% | viability, T/C (second compound 10 µM, first compound 0.0316 µM) 0.18% | viability, T/C (second compound 10 µM, first compound 0.1 µM) 0.17% | viability, T/C (second compound 10 µM, first compound 0.316 µM) 1.26% | viability, T/C (second compound 10 µM, first compound 1 µM) 0.19%
36 nM: IC50 (second compound 0.0316 µM)
< 3.16 nM: IC50 (second compound 0.316 µM) | IC50 (second compound 1 µM) | IC50 (second compound 3.16 µM) | IC50 (second compound 10 µM)
